These results are taken from US9751854B2 (Millennium Pharmaceuticals, Inc., priority 2014, dated 2017).

The target in the assay is human VPS34 (Homo sapiens (Human), UniProt Q8NEB9). In words: Human VPS34 enzyme assay (Adapta TR-FRET ADP detection). The class given is biochemical. Conditions: IC50 range class. (Time-resolved FRET reads energy transfer from a long-lived donor to a nearby acceptor.)
human VPS34, sequence (Q8NEB9 whole entry): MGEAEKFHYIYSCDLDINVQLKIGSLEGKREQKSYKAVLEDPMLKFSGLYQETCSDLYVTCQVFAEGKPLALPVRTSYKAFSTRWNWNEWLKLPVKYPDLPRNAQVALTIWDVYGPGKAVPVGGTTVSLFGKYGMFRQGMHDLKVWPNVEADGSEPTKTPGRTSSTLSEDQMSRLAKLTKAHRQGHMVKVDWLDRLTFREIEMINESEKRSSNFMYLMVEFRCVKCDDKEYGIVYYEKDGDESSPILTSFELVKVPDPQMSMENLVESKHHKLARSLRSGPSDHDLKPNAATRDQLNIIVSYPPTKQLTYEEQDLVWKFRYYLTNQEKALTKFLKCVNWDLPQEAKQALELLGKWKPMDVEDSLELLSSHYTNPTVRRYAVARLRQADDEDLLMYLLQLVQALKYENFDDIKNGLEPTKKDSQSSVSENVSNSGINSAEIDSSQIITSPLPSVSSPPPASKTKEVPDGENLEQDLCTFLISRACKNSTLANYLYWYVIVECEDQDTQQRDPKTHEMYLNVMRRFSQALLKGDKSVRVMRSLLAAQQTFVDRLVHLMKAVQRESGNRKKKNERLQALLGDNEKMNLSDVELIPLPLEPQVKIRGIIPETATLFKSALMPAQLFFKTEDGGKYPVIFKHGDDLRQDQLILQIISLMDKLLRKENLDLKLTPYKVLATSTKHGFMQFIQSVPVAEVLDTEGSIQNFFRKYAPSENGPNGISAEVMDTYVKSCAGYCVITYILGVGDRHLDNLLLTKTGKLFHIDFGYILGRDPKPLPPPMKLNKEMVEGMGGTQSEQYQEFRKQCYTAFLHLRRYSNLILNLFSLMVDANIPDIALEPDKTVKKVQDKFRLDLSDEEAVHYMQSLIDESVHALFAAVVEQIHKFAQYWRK
Regarding `CC(=O)Nc1cc(-c2cnc3[nH]cc(S(=O)(=O)c4ccccc4)c3c2)ccn1` [Compound I-176, N-{4-[3-(phenylsulfonyl)-1H-pyrrolo[2,3-b]pyridin-5-yl]pyridin-2-yl}acetamide], the IC50 lay in the range of 10 to 50 nM.
The result for `CC(=O)Nc1cc(-c2cnc(Cl)c(S(=O)(=O)NC34CC(C3)C4)c2)ccn1` [Compound I-366, N-[5-(bicyclo[1.1.1]pent-1-ylsulfamoyl)-6-chloro-3,4′-bipyridin-2′-yl]acetamide] reads 10 to 50 nM; that for `CC(=O)Nc1cc(-c2cc(NS(=O)(=O)c3ccc(F)cc3F)c3ccnn3c2)ccn1` [Compound I-404, N-[4-(4-{[(2,4-difluorophenyl)sulfonyl]amino}pyrazolo[1,5-a]pyridin-6-yl)pyridin-2-yl]acetamide], 10 to 50 nM; that for `CC(=O)Nc1cc(-c2cncc(S(=O)(=O)N3CCC(F)(F)CC3)c2)ccn1` [Compound I-9, N-{5-[(4,4-difluoropiperidin-1-yl)sulfonyl]-3,4′-bipyridin-2′-yl}acetamide], 10 to 50 nM.
The same measure for `CC(=O)Nc1cc(-c2cnc(C)c(NS(=O)(=O)c3ccc(C#N)cc3F)c2)ccn1` [Compound I-356, N-(5-{[(4-cyano-2-fluorophenyl)sulfonyl]amino}-6-methyl-3,4′-bipyridin-2′-yl)acetamide]: under 10 nM; for `CC(=O)Nc1cc(-c2cnc(C)c(NS(=O)(=O)c3ccc(C)cc3)c2)ccn1` [Compound I-80, N-(6-methyl-5-{[(4-methylphenyl)sulfonyl]amino]-3,4′-bipyridin-2′-yl)acetamide]: under 10 nM.
For `CCc1c(-c2ccnc(NC(=O)C3CC3)c2)cnc(Cl)c1NS(=O)(=O)c1ccc(F)cc1F` [Compound I-278, N-(6-chloro-5-{[(2,4-difluorophenyl)sulfonyl]amino}-4-ethyl-3,4′-bipyridin-2′-yl)cyclopropanecarboxamide], the concentration for half-maximal inhibition (IC50) was 10 to 50 nM.
The result for `CC(=O)Nc1cc(-c2cncc(S(=O)(=O)N(C)c3ccccc3)c2)ccn1` [Compound I-365, N-{5-[methyl(phenyl)sulfamoyl]-3,4′-bipyridin-2′-yl}acetamide] reads 10 to 50 nM; that for `CC(=O)Nc1cc(-c2cnc(C#N)c(N3CCCCC3C)c2)ccn1` (stereo not drawn) [Compound I-380, N-[6-cyano-5-(2-methylpiperidin-1-yl)-3,4′-bipyridin-2′-yl]acetamide], over 100 nM.
The result for `CC(=O)Nc1cc(-c2cnc(N)c(S(=O)(=O)Cc3ccccc3F)c2)ccn1` [Compound I-197, N-{6-amino-5-[(2-fluorobenzyl)sulfonyl]-3,4′-bipyridin-2′-yl]acetamide] reads 10 to 50 nM; that for `CC(=O)Nc1cc(-c2cnc3[nH]ccc3c2)ccn1` [Compound I-140, N-[4-(1H-pyrrolo[2,3-b]pyridin-5-yl)pyridin-2-yl]acetamide], 10 to 50 nM; that for `CCN(CC)C(=O)c1cc(-c2ccnc(Nc3ccnc(C)n3)c2)cnc1C` [Compound I-302, N,N-diethyl-6-methyl-2′-[(2-methylpyrimidin-4-yl)amino]-3,4′-bipyridine-5-carboxamide], 10 to 50 nM.
The same measure for `CC(=O)Nc1cc(-c2cc(NS(=O)(=O)c3ccc(F)cc3F)c3ncnn3c2)ccn1` [Compound I-340, N-[4-(8-{[(2,4-difluorophenyl)sulfonyl]amino}[1,2,4]triazolo[1,5-a]pyridin-6-yl)pyridin-2-yl]acetamide]: 10 to 50 nM.
For the compound `CC(=O)Nc1cc(-c2cnc(N(C)C)c(C(=O)N(C)c3ccc(F)cc3F)c2)ccn1` [Compound I-174, 2′-Acetamido-N-(2,4-difluorophenyl)-6-(dimethylamino)-N-methyl-[3,4′-bipyridine]-5-carboxamide], the IC50 was under 10 nM.
Turning to `CC(=O)Nc1cc(-c2cnc(C)c(NS(=O)(=O)c3ccccc3C)c2)ccn1` [Compound I-211, N-(6-methyl-5-{[(2-methylphenyl)sulfonyl]amino}-3,4′-bipyridin-2′-yl)acetamide], the IC50 was under 10 nM.
The result for `Cc1cc(Nc2cc(-c3cnc(Cl)c(NS(=O)(=O)c4ccc(F)cc4F)c3C)ccn2)ccn1` [Compound I-272, N-{6-chloro-4-methyl-2′-[(2-methylpyridin-4-yl)amino]-3,4′-bipyridin-5-yl}-2,4-difluorobenzenesulfonamide] reads 50 to 100 nM; that for `CC(=O)Nc1cc(-c2cnc(C)c(NS(=O)(=O)N(C)c3ccccc3)c2)ccn1` [Compound I-494, N-(6-methyl-5-{[methyl(phenyl)sulfamoyl]amino}-3,4′-bipyridin-2′-yl)acetamide], 50 to 100 nM.
The same measure for `CC(=O)Nc1cc(-c2cnc(N)c(S(=O)(=O)Nc3cccnc3)c2)ccn1` [Compound I-204, N-[6-amino-5-(pyridin-3-ylsulfamoyl)-3,4′-bipyridin-2′-yl]acetamide]: under 10 nM; for `COc1ncc(-c2ccnc(NC(C)=O)c2)cc1N(C)C(=O)c1ccc(F)cc1F` [Compound I-331, N-(2′-acetamido-6-methoxy-3,4′-bipyridin-5-yl)-2,4-difluoro-N-methylbenzamide]: over 100 nM; for `Cc1c(-c2ccnc(Nc3ccnc(C4CC4)n3)c2)cnc(Cl)c1C(=O)O` [Compound I-369, 6-chloro-2′-((2-cyclopropylpyrimidin-4-yl)amino)-4-methyl-[3,4′-bipyridine]-5-carboxylic acid]: 10 to 50 nM.
The same measure for `CC(=O)Nc1cc(-c2cnc(N)c(C(=O)N3CCN(C)CC3)c2)ccn1` [Compound I-79, N-[6-amino-5-[(4-methylpiperazin-1-yl)carbonyl]-3,4′-bipyridin-2′-yl}acetamide]: 10 to 50 nM; for `CC(=O)Nc1cc(-c2cnc3cnn(S(=O)(=O)C4CC4)c3c2)ccn1` [Compound I-2, N-{4-[1-(cyclopropylsulfonyl)-1H-pyrazolo[4,3-b]pyridin-6-yl]pyridin-2-yl}acetamide]: 10 to 50 nM.
The compound `CC(=O)Nc1cc(-c2cnc(N)c(S(=O)(=O)N(C(C)C)C(C)C)c2)ccn1` [Compound I-77, N-[6-amino-5-(diisopropylsulfamoyl)-3,4′-bipyridin-2′-yl]acetamide] yielded an IC50 of under 10 nM.
In the case of `CNc1ncc(-c2ccnc(NC(C)=O)c2)cc1S(=O)(=O)Nc1ccccc1` [Compound I-100, N-[6-(methylamino)-5-(phenylsulfamoyl)-3,4′-bipyridin-2′-yl]acetamide], the concentration for half-maximal inhibition (IC50) was under 10 nM.
The same measure for `CC(=O)Nc1cc(-c2cnc(N)c(S(=O)(=O)NCC3CCCCC3)c2)ccn1` [Compound I-183, N-{6-amino-5-[(cyclohexylmethyl)sulfamoyl]-3,4′-bipyridin-2′-yl}acetamide]: under 10 nM.
The same measure for `Cc1nc(Nc2cc(-c3cnc(C)c(NS(=O)(=O)N(C)C)c3)ccn2)ccc1C#N` [Compound I-229, N-{2′-[(5-cyano-6-methylpyridin-2-yl)amino]-6-methyl-3,4′-bipyridin-5-yl}-N,N-dimethylsulfuric diamide]: under 10 nM.
As to `CC(=O)Nc1cc(-c2cnc(C)c(NS(=O)(=O)N3CCC3)c2)ccn1` [Compound I-257, N-{5-[(azetidin-1-ylsulfonyl)amino]-6-methyl-3,4′-bipyridin-2′-yl}acetamide], the half-inhibitory concentration (IC50) lay within 10 to 50 nM.
Consider `Cc1ncc(-c2ccnc(N)c2)cc1NS(=O)(=O)N(C)C` [Compound I-281, N′-(2′-amino-6-methyl-3,4′-bipyridin-5-yl)-N,N-dimethylsulfuric diamide], for which the IC50 is over 100 nM.
In turn, `CC(=O)Nc1cc(-c2cnc(C)c(NS(=O)(=O)c3cc(C)ccc3F)c2)ccn1` [Compound I-28, N-(5-{[(2-fluoro-5-methylphenyl)sulfonyl]amino}-6-methyl-3,4′-bipyridin-2′-yl)acetamide] gave a half-maximal inhibitory concentration (IC50) of under 10 nM.
The same measure for `CCS(=O)(=O)c1cc(-c2ccnc(NC(C)=O)c2)cnc1N` [Compound I-69, N-[6-amino-5-(ethylsulfonyl)-3,4′-bipyridin-2′-yl]acetamide]: 10 to 50 nM.
The result for `CC(=O)Nc1cc(-c2cc(NS(=O)(=O)N(C)C)c3ccnn3c2)ccn1` [Compound I-476, N-(4-{4-[(dimethylsulfamoyl)amino]pyrazolo[1.5-a]pyridin-6-yl}pyridin-2-yl)acetamide] reads 10 to 50 nM; that for `CC(=O)Nc1cc(-c2cncc(S(=O)(=O)NC34CC5CC(CC(C5)C3)C4)c2)ccn1` [Compound I-468, N-[5-(adamantan-1-ylsulfamoyl)-3,4′-bipyridin-2′-yl]acetamide], 10 to 50 nM.
The same measure for `CC(=O)Nc1cc(-c2cnc(C)c(NS(=O)(=O)c3ccc(F)cc3F)c2)cc(C)n1` [Compound I-414, N-(5-{[(2,4-difluorophenyl)sulfonyl]amino}-6,6′-dimethyl-3,4′-bipyridin-2′-yl)acetamide]: 50 to 100 nM; for `Cc1nccc(Nc2cc(-c3cnc(N(C)C)c(C(=O)N(C)C45CC(C4)C5)c3)ccn2)n1` [Compound I-306, N-(bicyclo[1.1.1]pent-1-yl)-6-(dimethylamino)-N-methyl-2′-((2-methylpyrimidin-4-yl)amino)-3,4′-bipyridine-5-carboxamide]: 10 to 50 nM.
For `CC(=O)Nc1cc(-c2cnc(C)c(NS(=O)(=O)c3cccc(F)c3Cl)c2)ccn1` [Compound I-322, N-(5-{[(2-chloro-3-fluorophenyl)sulfonyl]amino}-6-methyl-3,4′-bipyridin-2′-yl)acetamide], the IC50 was 10 to 50 nM.
The result for `CC(=O)Nc1cc(-c2cnc(Cl)c(NS(=O)(=O)c3cccc4ncccc34)c2C)ccn1` [Compound I-437, N-{6-chloro-4-methyl-5-[(quinolin-5-ylsulfonyl)amino]-3,4′-bipyridin-2′-yl}acetamide] reads 10 to 50 nM; that for `COC(=O)Nc1cc(-c2cnc(N)c(S(=O)(=O)C(C)C)c2)ccn1` [Compound I-34, methyl [6-amino-5-(isopropylsulfonyl)-3,4′-bipyridin-2′-yl]carbamate], under 10 nM.
In turn, `CC(=O)Nc1cc(-c2cnc(N)c(C(=O)N3CCC(F)(F)C3)c2)ccn1` [Compound I-60, N-{6-amino-5-[(3,3-difluoropyrrolidin-1-yl)carbonyl]-3,4′-bipyridin-2′-yl}acetamide] had an IC50 of 10 to 50 nM.
The result for `CC(=O)Nc1cc(-c2cnc(C)c(OS(=O)(=O)N(C)C)c2)ccn1` [Compound I-359, 2′-acetamido-6-methyl-3,4′-bipyridin-5-yl dimethylsulfamate] reads 10 to 50 nM.

As a reminder, the IC50 is the concentration needed to halve the response being measured. Higher therefore signals weaker potency in that assay.
